Like-named read-outs stand apart in the source and are kept apart here. No end group written: not given here.
Columns and labels:
[1] = Description: The polydispersity of a virosomal preparation is an indication for the homogeneity of the particle size in an aqueous solution, with lower polydispersity being associated with a greater degree of homogeneity of size over all virosomes present in the composition.
physchem [2] = assay: physchem
physchem [3] = assay: physchem; remark: listed apart in the source

Sequence	Stabilty(I)IRIV [1]	solubility (physchem [2]) [µg/mL]	solubility (physchem [3]) [µg/mL]
RVLQGLPREYVNARHSPESFDGDPASNTAPLQPYMPIWKFPDEEGAC [PEV607, RVLQGLPREYVNARHS PESFDGDPASNTAPLQP YMPIWKFPDEEGAC]	limited	500 to 1500	800
RVLQGLPREYVNARHC [PEV602, RVLQGLPREYVNARHC]	limited		500
YMPIWKFPDEEGASPESFDGDPASNTAPLQPRVLQGLPREYVNARHC [PEV609, YMPIWKFPDEEGAS PESFDGDPASNTAPLQP RVLQGLPREYVNARHC]	limited		800
PESFDGDPASNTAPLQPRVLQGLPREYVNARHSLPYMPIWKFPDEEGAC [PEV604]	limited	500 to 1500	800
PESFDGDPASNTAPLQPYMPIWKFPDEEGASRVLQGLPREYVNARHC [PEV606, PESFDGDPASNTAPLQP YMPIWKFPDEEGAS RVLQGLPREYVNARHC]	limited		800
YMPIWKFPDEEGAC [PEV603, YMPIWKFPDEEGAC]	limited	2000 to 3000	< 200
PESFDGDPASNTAPLQPRVLQGLPREYVNARHSYMPIWKFPDEEGAC [PEV605, PESFDGDPASNTAPLQP RVLQGLPREYVNARHS YMPIWKFPDEEGAC]	limited		800
YMPIWKFPDEEGASRVLQGLPREYVNARHSPESFDGDPASNTAPLQPC [PEV610, YMPIWKFPDEEGAS RVLQGLPREYVNARHS PESFDGDPASNTAPLQPC]	limited		800
PESFDGDPASNTAPLQPGGGGGC [PEV601]	acceptable		2000 to 3000
RVLQGLPREYVNARHSYMPIWKFPDEEGASPESFDGDPASNTAPLQPC [PEV608, RVLQGLPREYVNARHS YMPIWKFPDEEGAS PESFDGDPASNTAPLQPC]	limited		800

Source: patent US8852604B2, “Multiepitope vaccine for Her2/neu-associated cancers” (Pevion Biotech AG, priority 2009, dated 2014)
